This note sets out measurements from patent publication US20230365553A1, “COMPOUNDS AND COMPOSITIONS FOR TREATING CONDITIONS ASSOCIATED WITH STING ACTIVITY” (IFM Due, Inc., priority 2020, published 2023).

This experiment concerns the target T1, STING (Homo sapiens, UniProt Q86WV6, G230A/H232R/R293Q/R71H).
T1 construct: host or cells: THP1-Dual KO-IFNAR2 cells
Nature of the experiment: STING reporter assay: luciferase reporter activity in THP1-Dual KO-IFNAR2 cells stimulated with 2′3′cGAMP. Conditions: 15 μM 2′3′cGAMP, 24h, read-out: hSTING EC50. The experiment is classed as cell-based. Here is the method:
STING pathway activation by the compounds described herein was measured using THP 1-Dual™ cells (KO-IFNAR2).
THP1-Dual™ KO-IFNAR2 Cells (obtained from invivogen) were maintained in RPMI, 10% FCS, 5 ml P/S, 2 mM L-glut, 10 mM Hepes, and 1 mM sodium pyruvate. Compounds were spotted in empty 384 well tissue culture plates (Greiner 781182) by Echo for a final concentration of 0.0017-100 μM. Cells were plated into the TC plates at 40 μL per well, 2×10E6 cells/mL. For activation with STING ligand, 2′3′cGAMP (MW 718.38, obtained from Invivogen), was prepared in Optimem media.
The following solutions were prepared for each 1×384 plate: • Solution A: 2 mL Optimem with one of the following stimuli: • 60 μL of 10 mM 2′3′cGAMP→150 μM stock • Solution B: 2 mL Optimem with 60 μL Lipofectamine 2000→Incubate 5 min at RT
2 mL of solution A and 2 ml Solution B was mixed and incubated for 20 min at room temperature (RT). 20 μL of transfection solution (A+B) was added on top of the plated cells, with a final 2′3′cGAMP concentration of 15 μM. The plates were then centrifuged immediately at 340 g for 1 minute, after which they were incubated at 37° C., 5% CO2, >98% humidity for 24h. Luciferase reporter activity was then measured. EC50 values were calculated by using standard methods known in the art.
Luciferase reporter assay: 10 μL of supernatant from the assay was transferred to white 384-plate with flat bottom and squared wells. One pouch of QUANTI-Luc™ Plus was dissolved in 25 mL of water. 100 μL of QLC Stabilizer per 25 mL of QUANTI-Luc™ Plus solution was added. 50 μL of QUANTI-Luc™ Plus/QLC solution per well was then added. Luminescence was measured on a Platereader (e.g., Spectramax I3X (Molecular Devices GF3637001)).
Luciferase reporter activity was then measured. EC50 values were calculated by using standard methods known in the art.

T1 sequence (Q86WV6 whole entry R71H/G230A/H232R/R293Q): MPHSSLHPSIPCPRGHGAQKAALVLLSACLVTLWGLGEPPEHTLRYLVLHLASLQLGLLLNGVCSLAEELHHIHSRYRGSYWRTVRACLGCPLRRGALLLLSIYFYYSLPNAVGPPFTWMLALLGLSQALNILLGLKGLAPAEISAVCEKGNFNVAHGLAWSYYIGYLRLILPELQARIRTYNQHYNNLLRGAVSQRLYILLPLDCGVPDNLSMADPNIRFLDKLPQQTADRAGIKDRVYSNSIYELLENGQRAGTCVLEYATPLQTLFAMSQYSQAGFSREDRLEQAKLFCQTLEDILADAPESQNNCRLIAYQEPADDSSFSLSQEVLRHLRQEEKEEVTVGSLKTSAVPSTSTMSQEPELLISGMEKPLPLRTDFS

Regarding `CCc1ccc(-n2cc(-c3ccc4[nH]cc(NC(C)=O)c4c3)cn2)cc1` [Compound 134, N-(5-(1-(4-ethylphenyl)-1H-pyrazol-4-yl)-1H-indol-3-yl)acetamide], the EC50 fell in the range of 0.04 to 0.2 µM.

As to `CCC(=O)Nc1c[nH]c2ccc(-c3ccc(CN4CCOCC4)s3)cc12` [Compound 135, N-(5-(5-(morpholinomethyl)thiophen-2-yl)-1H-indol-3-yl)propionamide], the concentration for a half-maximal effect (EC50) was in the range of 5 to 100 µM.

On to `CCC(=O)Nc1c[nH]c2ccc(-c3cc(C#N)cs3)cc12` [Compound 136, N-(5-(4-cyanothiophen-2-yl)-1H-indol-3-yl)propionamide], for which the EC50 lay within 1 to 5 µM.

Consider `CCC(=O)Nc1c[nH]c2ccc(-c3cnn(C4CCCC4)c3)cc12` [Compound 137, N-(5-(1-cyclopentyl-1H-pyrazol-4-yl)-1H-indol-3-yl)propionamide], for which the concentration for a half-maximal effect (EC50) was 5 to 100 µM. `CCC(=O)Nc1c[nH]c2ccc(-c3cnn(-c4ccccn4)c3)cc12` [Compound 138, N-(5-(1-(pyridin-2-yl)-1H-pyrazol-4-yl)-1H-indol-3-yl)propionamide]: the EC50 is 5 to 100 µM. Consider `CCC(=O)Nc1c[nH]c2ccc(-c3cnn(-c4ccc(C(F)(F)F)cc4)c3)cc12` [Compound 139, N-(5-(1-(4-(trifluoromethyl)phenyl)-1H-pyrazol-4-yl)-1H-indol-3-yl)propionamide], for which the EC50 lay in the range of 0.2 to 1 µM.

Take `CCC(=O)Nc1c[nH]c2ccc(C3=CCN(c4ccccn4)CC3)cc12` [Compound 140, N-(5-(3,6-dihydro-2H-[1,2′-bipyridin]-4-yl)-1H-indol-3-yl)propionamide]: the concentration for a half-maximal effect (EC50) was in the range of 5 to 100 µM. Then `CCC(=O)Nc1c[nH]c2ccc(C3=CCCCC3)cc12` [Compound 141, N-(5-(cyclohex-1-en-1-yl)-1H-indol-3-yl)propionamide], with 5 to 100 µM. Take `CCC(=O)Nc1c[nH]c2ccc(-c3ccnn3C)cc12` [Compound 142, N-(5-(1-methyl-1H-pyrazol-5-yl)-1H-indol-3-yl)propionamide]: the concentration for a half-maximal effect (EC50) lay within 1 to 5 µM.

Turning to `CCC(=O)Nc1c[nH]c2ccc(-c3ccc(OC(F)(F)F)cc3)cc12` [Compound 143, N-(5-(4-(trifluoromethoxy)phenyl)-1H-indol-3-yl)propionamide], the EC50 was 1 to 5 µM. The result for `CCC(=O)Nc1c[nH]c2ccc(-c3ccc(C4(C#N)CC4)cc3)cc12` [Compound 144, N-(5-(4-(1-cyanocyclopropyl)phenyl)-1H-indol-3-yl)propionamide] reads 5 to 100 µM. For `CCC(=O)Nc1c[nH]c2ccc(-c3cccc(COC)c3)cc12` [Compound 145, N-(5-(3-(methoxymethyl)phenyl)-1H-indol-3-yl)propionamide], the EC50 lay in the range of 5 to 100 µM. Then `CCC(=O)Nc1c[nH]c2ccc(-c3cccc(C4CC4)c3)cc12` [Compound 146, N-(5-(3-cyclopropylphenyl)-1H-indol-3-yl)propionamide], with 1 to 5 µM. Consider `CCC(=O)Nc1c[nH]c2ccc(-c3ccc(N4CCCC4)nc3)cc12` [Compound 147, N-(5-(6-(pyrrolidin-1-yl)pyridin-3-yl)-1H-indol-3-yl)propionamide], for which the EC50 was 5 to 100 µM. Take `CCC(=O)Nc1c[nH]c2ccc(-c3cnn(CC4CC4)c3)cc12` [Compound 148, N-(5-(1-(cyclopropylmethyl)-1H-pyrazol-4-yl)-1H-indol-3-yl)propionamide]: the half-maximal effective concentration (EC50) lay in the range of 5 to 100 µM. The result for `CCC(=O)Nc1c[nH]c2ccc(-c3cnn(-c4cccc(Cl)c4)c3)cc12` [Compound 149, N-(5-(1-(3-chlorophenyl)-1H-pyrazol-4-yl)-1H-indol-3-yl)propionamide] reads 0.2 to 1 µM; that for `CCC(=O)Nc1c[nH]c2ccc(-c3cnn(-c4ccccc4)c3)cc12` [Compound 150, N-(5-(1-phenyl-1H-pyrazol-4-yl)-1H-indol-3-yl)propionamide], 0.2 to 1 µM; that for `CCC(=O)Nc1c[nH]c2ccc(-c3cnn(-c4ccc(CC)cc4)c3)cc12` [Compound 151, N-(5-(1-(4-ethylphenyl)-1H-pyrazol-4-yl)-1H-indol-3-yl)propionamide], 0.04 to 0.2 µM. Turning to `CCC(=O)Nc1c[nH]c2ccc(-c3cnn(-c4ccc(CC)cc4)c3)nc12` [Compound 164, N-(5-(1-(4-ethylphenyl)-1H-pyrazol-4-yl)-1H-pyrrolo[3,2-b]pyridin-3-yl)propionamide], the half-maximal effective concentration (EC50) was in the range of 5 to 100 µM.

In the case of `CCc1ccc(-n2cc(-c3ccc4[nH]cc(NC(=O)C5CCCCO5)c4c3)cn2)cc1` (stereo not drawn) [Compound 165, N-(5-(1-(4-ethylphenyl)-1H-pyrazol-4-yl)-1H-indol-3-yl)tetrahydro-2H-pyran-2-carboxamide], the concentration for a half-maximal effect (EC50) was in the range of 0.2 to 1 µM. Regarding `CCc1ccc(-n2cc(-c3ccc4[nH]cc(NC(=O)C(O)C(F)(F)F)c4c3)cn2)cc1` (stereo not drawn) [Compound 166, N-(5-(1-(4-ethylphenyl)-1H-pyrazol-4-yl)-1H-indol-3-yl)-3,3,3-trifluoro-2-hydroxypropanamide], the half-maximal effective concentration (EC50) is 1 to 5 µM. On to `CC(=O)Nc1c[nH]c2ccc(-c3cnn(-c4ccc(CC(F)(F)F)cc4)c3)cc12` [Compound 167, N-(5-(1-(4-(2,2,2-trifluoroethyl)phenyl)-1H-pyrazol-4-yl)-1H-indol-3-yl)acetamide], for which the concentration for a half-maximal effect (EC50) fell in the range of 0.04 to 0.2 µM. With `CC(=O)Nc1c[nH]c2ccc(-c3cnn(-c4ccc(Cl)c(Cl)c4)c3)cc12` [Compound 168, N-(5-(1-(3,4-dichlorophenyl)-1H-pyrazol-4-yl)-1H-indol-3-yl)acetamide], the EC50 fell in the range of 0.2 to 1 µM. On to `CC(=O)Nc1c[nH]c2ccc(-c3cnn(-c4ccc(C5CC(F)(F)C5)c(Cl)c4)c3)cc12` [Compound 169, N-(5-(1-(3-chloro-4-(3,3-difluorocyclobutyl)phenyl)-1H-pyrazol-4-yl)-1H-indol-3-yl)acetamide], for which the EC50 is 0.2 to 1 µM. On to `CC(=O)Nc1c[nH]c2ccc(-c3cnn(-c4ccc(F)c(F)c4)c3)cc12` [Compound 170, N-(5-(1-(3,4-difluorophenyl)-1H-pyrazol-4-yl)-1H-indol-3-yl)acetamide], for which the EC50 lay within 1 to 5 µM. As for `CC(=O)Nc1c[nH]c2ccc(-c3cnn(-c4ccc(C5(C)CCCCC5)cc4)c3)cc12` [Compound 171, N-(5-(1-(4-(1-methylcyclohexyl)phenyl)-1H-pyrazol-4-yl)-1H-indol-3-yl)acetamide], the EC50 was in the range of 1 to 5 µM. Consider `CC(=O)Nc1c[nH]c2ccc(-c3cnn(-c4ccc(C(F)(F)F)cc4Cl)c3)cc12` [Compound 172, N-(5-(1-(2-chloro-4-(trifluoromethyl)phenyl)-1H-pyrazol-4-yl)-1H-indol-3-yl)acetamide], for which the concentration for a half-maximal effect (EC50) fell in the range of 0.04 to 0.2 µM. Regarding `CC(C)(O)CC(=O)Nc1c[nH]c2ccc(-c3cnn(-c4ccc(C(F)(F)F)cc4)c3)cc12` [Compound 173, 3-hydroxy-3-methyl-N-(5-(1-(4-(trifluoromethyl)phenyl)-1H-pyrazol-4-yl)-1H-indol-3-yl)butanamide], the half-maximal effective concentration (EC50) lay in the range of 0.2 to 1 µM. Regarding `COCC(=O)Nc1c[nH]c2ccc(-c3cnn(-c4ccc(C(F)(F)F)cc4)c3)cc12` [Compound 174, 2-methoxy-N-(5-(1-(4-(trifluoromethyl)phenyl)-1H-pyrazol-4-yl)-1H-indol-3-yl)acetamide], the EC50 lay within 0.2 to 1 µM. Then `CC(=O)Nc1c[nH]c2ccc(-c3cnn([C@@H](C)c4cccc(C(F)(F)F)c4)c3)cc12` [Compound 175, (S)-N-(5-(1-(1-(3-(trifluoromethyl)phenyl)ethyl)-1H-pyrazol-4-yl)-1H-indol-3-yl)acetamide], with 0.2 to 1 µM.
